Laboratory results as given in US6034067A, “Serine protease inhibitors” (Akzo Nobel, N.V., priority 1996, dated 2000).

Target: T1, Human thrombin (Homo sapiens, UniProt P00734)
T1 construct: purchased Centraal Laboratorium voor Bloedtransfusie, Amsterdam, The Netherlands
Assay: Anti-thrombin assay (hydrolysis of chromogenic substrate S-2238 by thrombin)
Assay type: biochemical
Settings: final concentration causing 50% inhibition of the maximum absorbance of the blank; S-2238 substrate, TNP buffer pH 7.4, 37° C., absorbance at 405 nm
Description: Thrombin (Factor IIa) is a factor in the coagulation cascade.
At room temperature 0.075 ml and 0.025 ml test compound or reference compound solutions or vehicle are alternately pipetted into the wells of a microtiter plate and these solutions are diluted with 0.115 ml and 0.0165 ml TNP buffer, respectively. […] The plate is incubated (with shaking for 30 s) at 37° C.
All data are collected in an IBM personal computer using LOTUS-MEASURE.

IC50 [nM]	SMILES
34	N=C(N)NC(=O)CCC(NC(=O)[C@@H]1CCCN1C(=O)[C@@H](CC1CCCCC1)NCC(=O)O)C(=O)c1nccs1 (stereo partly drawn) [Example 2, HOOC-CH2 -D-Cha-Pro-Glu(guanadine)-(2-thiazolyl)]
2590	CCS(=O)(=O)N[C@H](CC1CCCCC1)C(=O)N1CCC[C@H]1C(=O)NC(CCC(=O)NC(=N)N)C(=O)c1nccs1 (stereo partly drawn) [Example 4, EtSO2 -D-Cha-Pro-Glu(guanidine)-(2-thiazolyl)]

SMILES	IC50 [nM]
CN[C@H](CC1CCCCC1)C(=O)N1CCC[C@H]1C(=O)NC(CCC(=O)NC(=N)N)C(=O)c1nccs1 (stereo partly drawn) [Example 6, N-Me-D-Cha-Pro-Glu(guanidine)-(2-thiazolyl)]	320
